{"source": "patent EP3246028A1", "about": "“QUINOLINE COMPOUNDS FOR INCREASING INSULINE RELEASE” (Max-Planck-Gesellschaft zur Förderung der Wissenschaften …, priority 2016, dated 2017)", "key": {"[1]": {"tested_on": "RIN-5AH insulinoma beta cell line", "assay": "Insulin secretion (insulin ELISA of supernatants)", "format": "cell-based", "conditions": "for activation at 5 µM: RIN-5AH cells, treated in medium for 2 hours, read-out: AV_INSULIN (percent increase in insulin secretion over a DMSO control); for effect on insulin secretion: negative control quinoline compounds", "experimental": "Culture medium and supplements were purchased from Life Technologies. The RIN-5AH insulinoma beta cell line was cultured in RPMI 1640 supplemented with 10% FBS, 2 mM glutamine. All culture media contained 1x penicillin-streptomycin. Cells were grown on 15 cm culture plates at 37°C under 5% CO2 in high humidity atmosphere.\nTo determine the insulin level from the supernatants insulin ELISA kits from Millipore or Mercodia were used. RIN-5AH cells were seeded in 96 well or 12 well plates and grown overnight. RIN-5AH cells never reached more than 80% confluency before treatment. Cells were washed once with PBS before treatment. Cells were treated in medium for 2 hours and with 5 µM of insulin secretagogue according to the present invention, if not otherwise indicated. After treatment 100ul of supernatant was taken. Samples were assayed immediately or stored at -20°C until measurement. Dilutions were made if necessary and ELISA was subsequently performed according to the user's manual. Insulin secretion was normalized to cell number by MTT assay or to total protein amount by BCA assay (ThermoFisher Scientific, 23225). Plates were read on BioTrek Elx800 absorbance reader at 450 nm.\nRIN-5AH beta cells were treated with 5 µM compound 12 or 50 µM quinidine or chloroquine according to the above described protocol (Example 1)."}, "[2]": {"tested_on": "RIN-5AH cells", "assay": "Calcium influx by FACS analysis (Fluo-4 AM fluorescence)", "format": "cell-based", "conditions": "extracellular Ca2+ present, compound 12 at 5 µM, Figure 2", "experimental": "Calcium influx was measured by FACS analysis, similar to protocols previously described (Brewis, I. A., journal of andrology 21, 238-249, doi:10.1002/j.1939-4640.2000.tb02101.x (2000); Vines, A., Cytometry Part A 77A, 1091-1097, doi:10.1002/cyto.a.20974 (2010); Schepers, E., Journal of Immunological Methods 348, 74-82, doi:http://dx.doi.org/10.1016/j.jim.2009.07.002 (2009)).\nRIN-5AH cells (30,000 cells per well) were plated in 12 well plates and incubated overnight at 37°C and 5% CO2. Cells were stained with Fluo-4 AM (molecular probes, F14201) by using a 3µM stock solution prepared in HBSS with Ca2+ and Mg2+ (HBSS++) and with addition of a final amount of 0.02% Pluronic-F127 (molecular probes, P6867). Cells were incubated with 600ul of the dye/well for 1h at 37°C, in 5% CO2. They were washed 2x with Ca2+ and Mg2+ free HBSS (HBSS--) (Gibco, 14170) before moving to the next step of the protocol (see below).\nCells were trypsinized for three minutes at 37°C and 5% CO2. The cell suspension was then diluted by adding 1ml HBSS-- / well and centrifuged for 3 minutes at 1200 RPM. Cells were resuspended in 1 mL of HBSS++ or HBSS-- before starting the measurement. Base fluorescent signal was recorded for 30 seconds followed by treatment with the various compounds by quickly adding the compounds to the FACS analysis tubes, while acquisition was not interrupted (gaps). […] Samples were measured continuously for the desired time and all measurements were completed within 40 minutes. Unstained cells and stained cells in external buffer without Ca2+ and Mg2+ (HBSS--) were used as negative controls for the treatments. Data were acquired on BD-FACSCalibur and the visualizations were prepared by FlowJo software."}}, "note": "Entries after “also recorded” stand apart in the source; their conditions may differ."}
{"smiles": "N#Cc1cc(Nc2ccc(F)c(Cl)c2)c2cc(Cl)cc(Cl)c2n1", "note": "[Compound 14, 6,8-dichloro-4-(3-chloro-4-fluoro-anilino)quinoline-2-carbonitrile]", "values": [{"measurement": "activation at 5 µM", "setting": "[1]", "value": 78, "unit": "%"}]}
{"smiles": "COc1c(F)ccc2c(Nc3ccc(Cl)cc3C(F)(F)F)cc(C#N)nc12", "note": "[Compound 4, 4-[4-chloro-2-(trifluoromethyl)anilino]-7-fluoro-8-methoxy-quinoline-2-carbonitrile]", "values": [{"measurement": "activation at 5 µM", "setting": "[1]", "value": 101, "unit": "%"}, {"measurement": "divalent calcium cation influx (Fluo-4 AM fluorescence by FACS)", "setting": "[2]", "value": "induced divalent calcium cation influx"}]}
{"smiles": "N#Cc1cc(-c2cccc(N)c2)c2ccc(F)cc2n1", "note": "[Compound 1, 4-(3-aminophenyl)-7-fluoro-quinoline-2-carbonitrile]", "values": [{"measurement": "activation at 5 µM", "setting": "[1]", "value": 151, "unit": "%"}]}
{"smiles": "COc1cc(Nc2c(C#N)cnc3cc(OCCCN)c(OC)cc23)c(Cl)cc1Cl", "note": "[Compound 17, 7-(3-aminopropoxy)-4-(2,4-dichloro-5-methoxy-anilino)-6-methoxy-quinoline-3-carbonitrile]", "values": [{"measurement": "activation at 5 µM", "setting": "[1]", "value": 74, "unit": "%"}]}
{"smiles": "N#Cc1cc(-c2cccc(NC(=O)c3cccc(C(F)(F)F)c3)c2)c2ccc(F)cc2n1", "note": "[Compound 11, N-[3-(2-cyano-7-fluoro-4-quinolyl)phenyl]-3-(trifluoromethyl)benzamide]", "values": [{"measurement": "activation at 5 µM", "setting": "[1]", "value": 86, "unit": "%"}]}
{"smiles": "COc1cc2c(Oc3ccc(NS(=O)(=O)c4cccc(-c5ccccc5)c4)cc3F)ccnc2cc1OCCCN1CCOCC1", "note": "[Compound 26, N-[3-fluoro-4-[[6-methoxy-7-(3-morpholinopropoxy)-4-quinolyl]oxy]phenyl]-3-phenyl-benzenesulfonamide]", "values": [{"measurement": "activation at 5 µM", "setting": "[1]", "value": 47, "unit": "%"}]}
{"smiles": "COc1cc(Nc2ccnc3cc(OCc4ccccc4)c(OC)cc23)c(Cl)cc1Cl", "note": "[Compound 73, 7-benzyloxy-N-(2,4-dichloro-5-methoxy-phenyl)-6-methoxy-quinolin-4-amine]", "values": [{"measurement": "effect on insulin secretion", "setting": "[1]", "value": "didn't show any effect"}, {"measurement": "divalent calcium cation influx (Fluo-4 AM fluorescence by FACS)", "setting": "[2]", "value": "did not show any increase"}]}
{"smiles": "COc1cc(Nc2cc(C#N)nc3c(C(F)(F)F)cccc23)c(Cl)cc1Cl", "note": "[Compound 22, 4-(2,4-dichloro-5-methoxy-anilino)-8-(trifluoromethyl)quinoline-2-carbonitrile]", "values": [{"measurement": "activation at 5 µM", "setting": "[1]", "value": 58, "unit": "%"}]}
{"smiles": "CN(C)Cc1cc(Nc2cc(C#N)nc3cc(F)ccc23)c(Cl)cc1Cl", "note": "[Compound 23, 4-[2,4-dichloro-5-(dimethylaminomethyl)anilino]-7-fluoro-quinoline-2-carbonitrile]", "values": [{"measurement": "activation at 5 µM", "setting": "[1]", "value": 57, "unit": "%"}]}
{"smiles": "N#Cc1cc(Nc2ccc(Cl)cc2C(F)(F)F)c2cc(F)ccc2n1", "note": "[Compound 5, 4-[4-chloro-2-(trifluoromethyl)anilino]-6-fluoro-quinoline-2-carbonitrile]", "values": [{"measurement": "activation at 5 µM", "setting": "[1]", "value": 96, "unit": "%"}, {"measurement": "divalent calcium cation influx (Fluo-4 AM fluorescence by FACS)", "setting": "[2]", "value": "induced divalent calcium cation influx"}]}
{"smiles": "N#Cc1cc(-c2cccc(NS(=O)(=O)c3c(F)cccc3F)c2)c2ccc(F)cc2n1", "note": "[Compound 6, N-[3-(2-cyano-7-fluoro-4-quinolyl)phenyl]-2,6-difluoro-benzenesulfonamide]", "values": [{"measurement": "activation at 5 µM", "setting": "[1]", "value": 94, "unit": "%"}]}
{"smiles": "COc1cc(Nc2cc(C#N)nc3c(F)cccc23)c(Cl)cc1Cl", "note": "[Compound 19, 4-(2,4-dichloro-5-methoxy-anilino)-8-fluoro-quinoline-2-carbonitrile]", "values": [{"measurement": "activation at 5 µM", "setting": "[1]", "value": 70, "unit": "%"}]}
{"smiles": "COc1cc2c(Oc3ccc(NS(=O)(=O)c4cccc(-c5ccccc5)c4)cc3F)ccnc2cc1OCCCN", "note": "[Compound 9, N-[4-[[7-(3-aminopropoxy)-6-methoxy-4-quinolyl]oxy]-3-fluoro-phenyl]-3-phenyl-benzenesulfonamide]", "values": [{"measurement": "activation at 5 µM", "setting": "[1]", "value": 90, "unit": "%"}]}
{"smiles": "COc1cc2c(Nc3cc(OC)c(Cl)cc3Cl)cc(C#N)nc2cc1F", "note": "[Compound 75, 4-(2,4-dichloro-5-methoxy-anilino)-7-fluoro-6-methoxy-quinoline-2-carbonitrile]", "values": [{"measurement": "activation at 5 µM", "setting": "[1]", "value": 116, "unit": "%"}]}
{"smiles": "COc1cc(Nc2cc(C#N)nc3c(Br)cccc23)c(Cl)cc1Cl", "note": "[Compound 3, 8-bromo-4-(2,4-dichloro-5-methoxy-anilino)quinoline-2-carbonitrile]", "values": [{"measurement": "activation at 5 µM", "setting": "[1]", "value": 116, "unit": "%"}]}
{"smiles": "COc1cc2c(Nc3ccc(Cl)cc3Cl)c(C#N)cnc2cc1OCCCN", "note": "[Compound 20, 7-(3-aminopropoxy)-4-(2,4-dichloroanilino)-6-methoxy-quinoline-3-carbonitrile]", "values": [{"measurement": "activation at 5 µM", "setting": "[1]", "value": 67, "unit": "%"}]}
{"smiles": "CN(C)C(=O)c1cc(Nc2cc(C#N)nc3cc(F)ccc23)c(Cl)cc1Cl", "note": "[Compound 28, 2,4-dichloro-5-[(2-cyano-7-fluoro-4-quinolyl)amino]-N,N-dimethyl-benzamide]", "values": [{"measurement": "activation at 5 µM", "setting": "[1]", "value": 45, "unit": "%"}]}
{"smiles": "COc1cc2c(Nc3c(Cl)cccc3Cl)cc(C#N)nc2cc1F", "note": "[Compound 21, 4-(2,6-dichloroanilino)-7-fluoro-6-methoxy-quinoline-2-carbonitrile]", "values": [{"measurement": "activation at 5 µM", "setting": "[1]", "value": 65, "unit": "%"}]}
{"smiles": "COc1c(F)ccc2c(Nc3ccc(C)c(C)c3)cc(C#N)nc12", "note": "[Compound 16, 4-(3,4-dimethylanilino)-7-fluoro-8-methoxy-quinoline-2-carbonitrile]", "values": [{"measurement": "activation at 5 µM", "setting": "[1]", "value": 78, "unit": "%"}]}
{"smiles": "CN(C)C(=O)c1cc(Nc2cc(C#N)nc3c(Br)cccc23)c(Cl)cc1Cl", "note": "[Compound 2, 5-[(8-bromo-2-cyano-4-quinolyl)amino]-2,4-dichloro-N,N-dimethyl-benzamide]", "values": [{"measurement": "activation at 5 µM", "setting": "[1]", "value": 125, "unit": "%"}]}
{"smiles": "N#Cc1cc(Nc2c(Cl)cccc2Cl)c2cc(F)ccc2n1", "note": "[Compound 29, 4-(2,6-dichloroanilino)-6-fluoro-quinoline-2-carbonitrile]", "values": [{"measurement": "activation at 5 µM", "setting": "[1]", "value": 41, "unit": "%"}]}
{"smiles": "COc1cc2nccc(-c3cccc(Nc4cc(C#N)nc5c(F)cccc45)c3)c2cc1OC", "note": "[Compound 24, 4-[3-(6,7-dimethoxy-4-quinolyl)anilino]-8-fluoro-quinoline-2-carbonitrile]", "values": [{"measurement": "activation at 5 µM", "setting": "[1]", "value": 57, "unit": "%"}]}
{"smiles": "COc1cc(Nc2cc(C#N)nc3cc(F)c(OCCCN4C(=O)c5ccccc5C4=O)cc23)c(Cl)cc1Cl", "note": "[Compound 63, 4-(2,4-dichloro-5-methoxy-anilino)-6-[3-(1,3-dioxoisoindolin-2-yl)propoxy]-7-fluoro-quinoline-2-carbonitrile]", "values": [{"measurement": "effect on insulin secretion", "setting": "[1]", "value": "didn't show any effect"}, {"measurement": "divalent calcium cation influx (Fluo-4 AM fluorescence by FACS)", "setting": "[2]", "value": "did not show any increase"}]}
{"smiles": "CN(C)C(=O)c1cc(Nc2cc(C#N)nc3c(F)cccc23)c(Cl)cc1Cl", "note": "[Compound 25, 2,4-dichloro-5-[(2-cyano-8-fluoro-4-quinolyl)amino]-N,N-dimethyl-benzamide]", "values": [{"measurement": "activation at 5 µM", "setting": "[1]", "value": 48, "unit": "%"}]}
{"smiles": "COc1cc(Nc2cc(C#N)nc3ccc(F)cc23)c(Cl)cc1Cl", "note": "[Compound 10, 4-(2,4-dichloro-5-methoxy-anilino)-6-fluoro-quinoline-2-carbonitrile]", "values": [{"measurement": "activation at 5 µM", "setting": "[1]", "value": 89, "unit": "%"}]}
{"smiles": "COc1ccc2nc(C#N)cc(Nc3cc(OC)c(Cl)cc3Cl)c2c1", "note": "[Compound 15, 4-(2,4-dichloro-5-methoxy-anilino)-6-methoxy-quinoline-2-carbonitrile]", "values": [{"measurement": "activation at 5 µM", "setting": "[1]", "value": 78, "unit": "%"}]}
{"smiles": "N#Cc1cc(Nc2c(Cl)cccc2Cl)c2cccc(F)c2n1", "note": "[Compound 18, 4-(2,6-dichloroanilino)-8-fluoro-quinoline-2-carbonitrile]", "values": [{"measurement": "activation at 5 µM", "setting": "[1]", "value": 73, "unit": "%"}, {"measurement": "divalent calcium cation influx (Fluo-4 AM fluorescence by FACS)", "setting": "[2]", "value": "induced divalent calcium cation influx; also recorded: induced Ca2+ influx"}]}
{"smiles": "COc1cc2nccc(-c3cccc(Nc4cc(C(N)=O)nc5c(F)cccc45)c3)c2cc1OC", "note": "[Compound 27, 4-[3-(6,7-dimethoxy-4-quinolyl)anilino]-8-fluoro-quinoline-2-carboxamide]", "values": [{"measurement": "activation at 5 µM", "setting": "[1]", "value": 46, "unit": "%"}]}
{"smiles": "N#Cc1cc(Nc2ccc(Cl)cc2C(F)(F)F)c2cccc(F)c2n1", "note": "[Compound 7, 4-[4-chloro-2-(trifluoromethyl)anilino]-8-fluoro-quinoline-2-carbonitrile]", "values": [{"measurement": "activation at 5 µM", "setting": "[1]", "value": 93, "unit": "%"}, {"measurement": "divalent calcium cation influx (Fluo-4 AM fluorescence by FACS)", "setting": "[2]", "value": "induced divalent calcium cation influx; also recorded: induced Ca2+ influx"}]}
{"smiles": "COc1c(F)ccc2c(Nc3c(Cl)cccc3Cl)cc(C#N)nc12", "note": "[Compound 8, 4-(2,6-dichloroanilino)-7-fluoro-8-methoxy-quinoline-2-carbonitrile]", "values": [{"measurement": "activation at 5 µM", "setting": "[1]", "value": 93, "unit": "%"}, {"measurement": "divalent calcium cation influx (Fluo-4 AM fluorescence by FACS)", "setting": "[2]", "value": "induced divalent calcium cation influx; also recorded: induced Ca2+ influx"}]}
